Tested on: 292921-168-R-J2-PDC complex spheroid growth
Test: Anticancer human tumor 292921-168-R-J2-PDC patient-derived pancreatic carcinoma cell line growth inhibition [AhR]
Settings: for IC50: curve of first compound; for viability, T/C: stronger effect = lower value; active = viability on the fitted dose curve at most 10% of control; inactive = the rest
In short: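 Spheroids combined tumor cells with HUVEC endothelial cells and human MSCs as stroma. AhR antagonists were paired with standard or investigational drugs, each dosed in half-log steps down from near clinical Cmax, or from 10 microM where Cmax was unknown.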

[1] = second compound 0.1 µM, first compound 0.000949 µM
[2] = second compound 0.1 µM, first compound 0.003 µM
[3] = second compound 0.1 µM, first compound 0.00949 µM
[4] = second compound 0.1 µM, first compound 0.03 µM
[5] = second compound 0.1 µM, first compound 0.0949 µM
[6] = second compound 0.1 µM, first compound 0.3 µM
[7] = second compound 0.316 µM, first compound 0.000949 µM
[8] = second compound 0.316 µM, first compound 0.003 µM
[9] = second compound 0.316 µM, first compound 0.00949 µM
[10] = second compound 0.316 µM, first compound 0.03 µM
[11] = second compound 0.316 µM, first compound 0.0949 µM
[12] = second compound 0.316 µM, first compound 0.3 µM
[13] = second compound 1 µM, first compound 0.000949 µM
[14] = second compound 1 µM, first compound 0.003 µM
[15] = second compound 1 µM, first compound 0.00949 µM
[16] = second compound 1 µM, first compound 0.03 µM
[17] = second compound 1 µM, first compound 0.0949 µM
[18] = second compound 1 µM, first compound 0.3 µM
[19] = second compound 3.16 µM, first compound 0.000949 µM
[20] = second compound 3.16 µM, first compound 0.003 µM
[21] = second compound 3.16 µM, first compound 0.00949 µM
[22] = second compound 3.16 µM, first compound 0.03 µM
[23] = second compound 3.16 µM, first compound 0.0949 µM
[24] = second compound 3.16 µM, first compound 0.3 µM
[25] = second compound 10 µM, first compound 0.000949 µM
[26] = second compound 10 µM, first compound 0.003 µM
[27] = second compound 10 µM, first compound 0.00949 µM
[28] = second compound 10 µM, first compound 0.03 µM
[29] = second compound 10 µM, first compound 0.0949 µM
[30] = second compound 10 µM, first compound 0.3 µM
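Also: spheroids exposed to compounds for seven days after three days of growth.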

CC(C)CC(NC(=O)C(Cc1ccccc1)NC(=O)c1cnccn1)B(O)O (stereo not given) + Cc1cncc(-c2nc(NCCc3c[nH]c4ccccc34)c3ncn(C(C)C)c3n2)c1
inactive: viability, T/C [1] 92.8% | viability, T/C [2] 109% | viability, T/C [3] 51.3% | viability, T/C [7] 89.7% | viability, T/C [8] 99.3% | viability, T/C [9] 51.5% | viability, T/C [13] 82.3% | viability, T/C [14] 95.5% | viability, T/C [15] 48.7% | viability, T/C [19] 62.3% | viability, T/C [20] 77% | viability, T/C [21] 41.6% | viability, T/C [25] 43.5% | viability, T/C [26] 53.7% | viability, T/C [27] 19.6%
< 0.949 nM: IC50 (second compound 10 µM)
active: viability, T/C [4] 3.12% | viability, T/C [5] 0.7% | viability, T/C [6] 0.59% | viability, T/C [10] 3.84% | viability, T/C [11] 0.68% | viability, T/C [12] 0.47% | viability, T/C [16] 3.35% | viability, T/C [17] 0.56% | viability, T/C [18] 0.95% | viability, T/C [22] 1.9% | viability, T/C [23] 0.89% | viability, T/C [24] 1.05% | viability, T/C [28] 0.58% | viability, T/C [29] 0.63% | viability, T/C [30] 0.51%
6.72 nM: IC50 (second compound 3.16 µM)
9.81 nM: IC50 (second compound 0.316 µM)
9.77 nM: IC50 (second compound 0.1 µM)
9.14 nM: IC50 (second compound 1 µM)

Nc1ccn(C2OC(CO)C(O)C2(F)F)c(=O)n1 (stereo not given) + CC(CO)NC(=O)c1cc(-c2ccc(Cl)cc2)nn(-c2cnn(C)c2)c1=O
active: viability, T/C (second compound 0.1 µM, first compound 1 µM) 11.1% | viability, T/C (second compound 0.1 µM, first compound 3.16 µM) 10.3% | viability, T/C (second compound 0.1 µM, first compound 10 µM) 6.84% | viability, T/C (second compound 0.316 µM, first compound 1 µM) 10.8% | viability, T/C (second compound 0.316 µM, first compound 3.16 µM) 11.9% | viability, T/C (second compound 0.316 µM, first compound 10 µM) 6.25% | viability, T/C (second compound 3.16 µM, first compound 3.16 µM) 10.5% | viability, T/C (second compound 3.16 µM, first compound 10 µM) 6.81% | viability, T/C (second compound 10 µM, first compound 3.16 µM) 10.3% | viability, T/C (second compound 10 µM, first compound 10 µM) 8.31%
< 31.6 nM: IC50 (second compound 0.1 µM) | IC50 (second compound 0.316 µM) | IC50 (second compound 1 µM) | IC50 (second compound 3.16 µM) | IC50 (second compound 10 µM)
inactive: viability, T/C (second compound 0.1 µM, first compound 0.0316 µM) 11.7% | viability, T/C (second compound 0.1 µM, first compound 0.1 µM) 10.2% | viability, T/C (second compound 0.1 µM, first compound 0.316 µM) 11.1% | viability, T/C (second compound 0.316 µM, first compound 0.0316 µM) 11.8% | viability, T/C (second compound 0.316 µM, first compound 0.1 µM) 11.3% | viability, T/C (second compound 0.316 µM, first compound 0.316 µM) 9.79% | viability, T/C (second compound 1 µM, first compound 0.0316 µM) 12% | viability, T/C (second compound 1 µM, first compound 0.1 µM) 11.8% | viability, T/C (second compound 1 µM, first compound 0.316 µM) 11.7% | viability, T/C (second compound 1 µM, first compound 1 µM) 11.1% | viability, T/C (second compound 1 µM, first compound 3.16 µM) 11.9% | viability, T/C (second compound 1 µM, first compound 10 µM) 7.23% | viability, T/C (second compound 3.16 µM, first compound 0.0316 µM) 12.2% | viability, T/C (second compound 3.16 µM, first compound 0.1 µM) 10.9% | viability, T/C (second compound 3.16 µM, first compound 0.316 µM) 12.2% | viability, T/C (second compound 3.16 µM, first compound 1 µM) 11% | viability, T/C (second compound 10 µM, first compound 0.0316 µM) 14.2% | viability, T/C (second compound 10 µM, first compound 0.1 µM) 12.8% | viability, T/C (second compound 10 µM, first compound 0.316 µM) 11.9% | viability, T/C (second compound 10 µM, first compound 1 µM) 11.6%

CCc1c2c(nc3ccc(O)cc13)-c1cc3c(c(=O)n1C2)COC(=O)[C@]3(O)CC + Cc1cncc(-c2nc(NCCc3c[nH]c4ccccc34)c3ncn(C(C)C)c3n2)c1
inactive: viability, T/C [1] 62.5% | viability, T/C [2] 50.5% | viability, T/C [3] 22.7% | viability, T/C [7] 64.3% | viability, T/C [8] 50.4% | viability, T/C [9] 23.2% | viability, T/C [13] 57.6% | viability, T/C [14] 45.8% | viability, T/C [15] 22.5% | viability, T/C [16] 11.6% | viability, T/C [19] 44.6% | viability, T/C [20] 35.2% | viability, T/C [21] 19.6% | viability, T/C [22] 11.1% | viability, T/C [25] 36.7% | viability, T/C [26] 28.9% | viability, T/C [27] 21.7% | viability, T/C [28] 14.2%
2.91 nM: IC50 (second compound 0.1 µM)
active: viability, T/C [4] 11.1% | viability, T/C [5] 5.94% | viability, T/C [6] 3.28% | viability, T/C [10] 11.7% | viability, T/C [11] 5.74% | viability, T/C [12] 3.22% | viability, T/C [17] 6.94% | viability, T/C [18] 4.02% | viability, T/C [23] 6.69% | viability, T/C [24] 3.97% | viability, T/C [29] 9.49% | viability, T/C [30] 6.16%
2.89 nM: IC50 (second compound 0.316 µM)
1.92 nM: IC50 (second compound 1 µM)
< 0.949 nM: IC50 (second compound 3.16 µM) | IC50 (second compound 10 µM)
